This passage reports IC50 results from patent US10233186B2, “Inhibitors of activin receptor-like kinase” (BLUEPRINT MEDICINES CORPORATION, priority 2016, dated 2019).

For the experiment, the target named is T1, ALK2 R206H (GST-tagged mutant ALK2) (Homo sapiens, UniProt Q04771, R206H).
T1 construct: purchased Carna Bioscience or ThermoFisher 09-148 or PV6232
T1 sequence (Q04771 21-509 R206H): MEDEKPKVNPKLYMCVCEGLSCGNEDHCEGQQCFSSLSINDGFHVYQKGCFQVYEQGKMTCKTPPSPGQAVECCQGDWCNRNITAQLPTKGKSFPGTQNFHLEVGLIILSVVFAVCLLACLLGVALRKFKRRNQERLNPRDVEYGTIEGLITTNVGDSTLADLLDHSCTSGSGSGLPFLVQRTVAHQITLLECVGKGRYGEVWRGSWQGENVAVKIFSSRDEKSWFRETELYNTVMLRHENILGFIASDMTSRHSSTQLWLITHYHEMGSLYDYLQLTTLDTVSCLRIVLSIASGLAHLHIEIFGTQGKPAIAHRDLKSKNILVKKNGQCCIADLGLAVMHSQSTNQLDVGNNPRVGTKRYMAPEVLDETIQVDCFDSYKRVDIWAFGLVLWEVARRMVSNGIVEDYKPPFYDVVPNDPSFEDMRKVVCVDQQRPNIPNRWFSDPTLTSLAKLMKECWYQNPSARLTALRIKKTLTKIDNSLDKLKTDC
Briefly: ALK binding assay (LANTHASCREEN TR-FRET competitive binding, displacement of Kinase Tracer 178). As to conditions: ALK2 R206H, LANTHASCREEN TR-FRET competitive binding; read-out: Binding Assay (IC50). The method, then:
Binding assays were conducted using the LANTHASCREEN® technology (ThermoFisher Scientific). LANTHASCREEN® is a competitive binding, displacement assay where the assumed steady state occupancy of the binding site is measured using a time-resolved, fluorescence energy transfer (TR-FRET) readout between a fluorescent tracer and Europium (Eu)-tagged antibody specific for the kinase or expression tag (e.g. GST) of interest. Displacement of the tracer by a compound of the disclosure reduces, and is directly proportional to, the TR-FRET between the tracer and the antibody. Tracer was used at a concentration equal to or near to its Kd for the kinase.
In all cases, the kinase (2-5 nM) was mixed with Eu-tagged antibody (10 nM) mix and tracer (50 nM) were incubated with test compound titrations prepared in 100% DMSO (1% DMSO final) for 30 minutes at room temperature. All reagents and compounds were dissolved in Kinase Buffer A (ThermoFisher) to achieve the final concentration. […] This readout was normalized to 0% and 100% inhibited control wells, plotted against inhibitor concentration, and fitted to a 4-parameter log dose response curve.
Blank values in the table indicate that the particular compound was not tested in this assay.
In general, IC50 refers to the concentration needed to halve the response being measured. Turning to `O=C(C1CC1)N1CCN(c2ccnn3cc(-c4ncc5n4CCNC5)cc23)CC1` [Compound 101], the concentration for half-maximal inhibition (IC50) is > 50 nM.

`O=C(C1CC1)N1CCN(c2ccnn3cc(-c4ccn(C5CCNC5)n4)cc23)CC1` (centres unmarked) [Compound 105]: the half-maximal inhibitory concentration (IC50) was in the range of 10 to 50 nM.

For the compound `CN1CCn2c(cnc2-c2cc3c(N4CCN(C(=O)C5CC5)CC4)ccnn3c2)C1` [Compound 106], the IC50 is > 50 nM.

Consider `O=C(C1CC1)N1CCN(c2ccnn3cc(-c4nc5c(s4)CCNC5)cc23)CC1` [Compound 108], for which the concentration for half-maximal inhibition (IC50) fell in the range of 10 to 50 nM.

Consider `O=C(C1CC1)N1CCN(c2ccnn3cc(-c4ccc(Br)cc4)cc23)CC1` [Compound 119], for which the half-inhibitory concentration (IC50) was > 50 nM.

Turning to `O=C(C1CC1)N1CCN(c2ccnn3cc(-c4ccc(NC5=NCCN5)cc4)cc23)CC1` [Compound 121, cyclopropyl(4-(6-(4-(4,5-dihydro-1H-imidazol-2-ylamino)phenyl)pyrrolo[1,2-b]pyridazin-4-yl)piperazin-1-yl)methanone], the half-maximal inhibitory concentration (IC50) is < 10 nM.

Consider `O=C(C1CC1)N1CCN(c2ccnn3cc(-c4ccc(C5CCOCC5)cc4)cc23)CC1` [Compound 126], for which the half-inhibitory concentration (IC50) lay within 10 to 50 nM.

Consider `CCN1CCN(c2ccc(-c3cc4c(N5CCN(C(C)=O)CC5)ccnn4c3)cc2)CC1` [Compound 136], for which the IC50 is 10 to 50 nM.

For the compound `CCN1CCC(n2ccc(-c3cc4c(N5CCN(C(=O)C6CC6)CC5)ccnn4c3)n2)C1` (centres unmarked) [Compound 138], the IC50 is 10 to 50 nM.

Regarding `CCN1CCC(n2cc(-c3cc4c(N5CCN(C(=O)C6CC6)CC5)ccnn4c3)cn2)C1` (centres unmarked) [Compound 139], the 50% inhibitory concentration (IC50) was < 10 nM.

Consider `CCNC(=O)N1CCN(c2ccnn3cc(-c4ccc([C@H]5CNCCO5)cc4)cc23)CC1` [Compound 141], for which the IC50 fell in the range of 10 to 50 nM.

In the case of `O=C(C1CC1)N1CCN(c2ccnn3cc(-c4ccc(N5CCNCC5=O)cc4)cc23)CC1` [Compound 151], the IC50 is > 50 nM.

Take `CCN1CCN(c2ccc(-c3cc4c(N5CCN6C(=O)CCC6C5)ccnn4c3)cc2)CC1` (centres unmarked) [Compound 157, 2-(6-(4-(4-ethylpiperazin-1-yl)phenyl)pyrrolo[1,2-b]pyridazin-4-yl)hexahydropyrrolo[1,2-a]pyrazin-6(7H)-one]: the IC50 is > 50 nM.

As to `C[C@H]1CNC[C@@H](c2ccc(-c3cc4c(N5CCN(C(=O)C6CC6)CC5)ccnn4c3)cc2)O1` [Compound 165], the 50% inhibitory concentration (IC50) was 10 to 50 nM.

Turning to `O=C(C1CC1)N1CCN(c2ccnn3cc(-c4ccc(OCC5CCNC5)cc4)cc23)CC1` (centres unmarked) [Compound 166], the concentration for half-maximal inhibition (IC50) was < 10 nM.

With `C[C@@H]1CNC[C@@H](c2ccc(-c3cc4c(N5CCN(C(=O)C6CC6)CC5)ccnn4c3)cc2)O1` [Compound 168], the IC50 lay within 10 to 50 nM.

Turning to `CCN1CC2CN(c3ccnn4cc(-c5ccc(N6CCNCC6)cc5)cc34)CCN2C1=O` (centres unmarked) [Compound 171], the concentration for half-maximal inhibition (IC50) fell in the range of 10 to 50 nM.

In the case of `O=C(C1CC1)N1CCN(c2ccnn3cc(-c4ccc([C@H]5CCNC[C@H]5F)cc4)cc23)CC1` [Compound 175], the concentration for half-maximal inhibition (IC50) was in the range of 10 to 50 nM.

Turning to `O=C(C1CC1)N1CCN(c2ccnn3cc(-c4ccc([C@@H]5CCNC[C@@H]5F)cc4)cc23)CC1` [Compound 176], the IC50 was 10 to 50 nM.

For `CCN1CCC(n2cc(-c3cc4c(N5CCN(C(=O)C6CC6)CC5)ccnn4c3)cn2)CC1` [Compound 183], the IC50 is 10 to 50 nM.

Consider `Cc1nc(C2CCNCC2)sc1-c1cc2c(N3CCN(C(=O)C4CC4)CC3)ccnn2c1` [Compound 190], for which the IC50 is < 10 nM.

As to `O=C(C1CC1)N1CCN(c2ccnn3cc(-c4ccc(N5CCC6(CNC6)C5)cc4)cc23)CC1` [Compound 198], the IC50 is < 10 nM.

Consider `CCN1CCC[C@@H](c2ccc(-c3cc4c(N5CCN(C(=O)C6CC6)CC5)ccnn4c3)cc2)C1` [Compound 206], for which the IC50 is < 10 nM.

In the case of `CCN1CCC(c2ccc(-c3cc4c(N5CCN(C(=O)C(C)=O)CC5)ccnn4c3)cc2)CC1` [Compound 215], the IC50 lay in the range of 10 to 50 nM.

Take `CCN1CCC1COc1ccc(-c2cc3c(N4CCN(C(=O)C5CC5)CC4)ccnn3c2)cc1` (centres unmarked) [Compound 218]: the IC50 lay within 10 to 50 nM.

As to `CC(C)N1CC(Oc2ccc(-c3cc4c(N5CCN(C(=O)C6CC6)CC5)ccnn4c3)cc2)C1` [Compound 220], the IC50 was < 10 nM.
